We go through six compounds from patent US8987449B2, “Medicine for treating ischemic brain injury and its sequelae, and preparation method thereof” (Haimin Lei, priority 2011, dated 2015).

Test [1] relates to chicken chorioallantoic membrane (CAM). In words: Effect of LQC-T on CAM angiogenesis (CAM method, vessel count). Type of test: in vivo. The following applies: 20 μg/chicken embryo; for small vessel angiogenesis of CAM model, Medicine group (X ± S): 72 h incubation, number of small vessels, blank group 8.67 ± 1.03. The procedure: Embryonated chicken eggs of Lohmann of German, egg weight 50-60 g (embryo experiment center of Chinese Agriculture University)
LQC-T (1-6) (prepared by the methods of examples 2-7), wherein the purity was ≧98%, determined by high performance liquid chromatography (HPLC), meeting the requirements of the experiment. The powder was carefully sealed and preserved at 4° C.
Aseptic gelatin sponge, which was made into a wafer having a diameter of 5 mm by a hole-puncher in advance, was used as sample carrier. The prepared LQC-T series compounds were added according to 20 μg/chicken embryo in an aseptic environment. The 0.9% physiological saline was used in a blank group. The samples were air-dried in an aseptic environment.
A hatching egg after disinfection was put into a 37° C. incubation box with air sac upward until the seventh day of incubation. The egg embryo was disinfected using alcohol at a super clean bench, and then a small hole was drilled at the top of the egg embryo using a dental drill, and the nearby egg shell and shell membrane were removed carefully to form the opening with the size of about 1.2 cm×1.2 cm. After spotting the location for applying the sample, the air sac was broken with injection needle at the interface between air sac and the yolk and then 1-2 drops of aseptic physiological saline was injected so that the air sac membrane was separated from CAM membrane. Then the upper air sac membrane was slightly removed with a nipper to expose the lower CAM membrane.
The medicine-containing carrier was softly put by a nipper at the locations of CAM and yolk cyst membrane with fewer vessels, the opening was then sealed with aseptic transparent tape and incubation was continued for another 72 h.
After the incubation, the transparent tape blocking the chicken embryo air sac was removed with a nipper. The liquid of equal-volumetrically mixed methanol/acetone 1-2 ml was added and fixed at room temperature for 10 min. The CAM membrane was carefully removed and put it onto a slide. Then it was observed and a photograph was taken. The effect of the compounds on angiogenesis was evaluated by the count analytic method using the numbers of great vessels, medium vessels and small vessels arranged radially around by the carrier.
All the data were statistically analyzed using SPSS11.0 software pack. The difference between the administration group and the blank group was given through one-way variance analysis. P<0.05 had statistical significance.

For another test, the system named is ICR mice. In words: Buccal respiration duration of mice after head cutting (4° C. icy water swimming model). The test is classed as in vivo, mouse. The following applies: 80 mg/kg intragastrically once a day for 10 days, control 32.45 ± 5.49. The procedure:
ICR mice, half female and half male, weighing 19-21 g, certificate No.: SCXK (Jing) 2006-0009, provided by BeiJing Vital River Laboratories.
LQC-T4, tetramethylpyrazine (TMP), vanillic acid, Nimodipine (ShanDong XinHua Pharmaceutical CO., Ltd, batch No.: 0908164)
160 male ICR mice were divided into 8 groups randomly by weight, each of which contained 20 mice, wherein 0.5% CMC-NA (0.2 ml·10 g^−1) was administrated intragastrically to the blank control group; 6.7 mg·kg^−1 Nimodipine (0.2 ml·10 g^−1) was administrated intragastrically to the positive control group; 100 mg·kg^−1 TMP (0.2 ml·10 g^−1) was administrated intragastrically to the TMP group, three different dosage of 200 mg·kg^−1, 100 mg·kg^−1, 50 mg·kg^−1 were administrated intragastrically to the LQC-T4 (0.2 ml·10 g^−1) group relatively, and 125 mg·kg^−1 TMP+80 mg·kg^−1 vanillitc acid (0.2 ml·10 g^−1) was administrated intragastrically respectively. The medicines were continuously administrated once a day for 10 days.
The literature was referred to: [LiuZhenquan, SunHui, Xuqiuping, etc., Experimental Study on the Brain-Protective Effect of the Effective Fraction of Naoxin Formula in the Mouse Model of with Load-Bearing Swimming in Cold Water, Journal of Beijing University of Traditional Chinese Medicine [J], 2004, 27(4): 54-56] and the method recorded therein was improved. The head was rapidly cut with a scissor at post mortem when the mouse swam in 4° C. icy water for 3 min after the final administration. After head being cut, the buccal respiration duration of mouse was recorded.
(§1) The SAS 8.2 statistical software was used to carry out the one-way ANOVA variance analysis and the difference among the groups were compared by t-test.

Test [2] relates to rat primary cortical neurons. The test is described as follows: Proliferation of primary neuronal cells by MTT and morphology observation. Type of test: cell-based. The conditions noted are these: 60 μM; normal neurons; control 0.7567 ± 0.1109. The procedure: SD pregnant rats: pregnant for 16-18 d, certificate number: SCXK (Jing) 2006-0009, provided by BeiJing Vital River Laboratories.
LQC-T4 (prepared by the method of example 5), the purity was ≧98%, determined by high performance liquid chromatography (HPLC), which met the requirement of the experiment. The powder was carefully sealed and preserved at 4° C. The prepared LQC-T4 was dissolved using dimethyl sulfoxide and made into […] storing liquid for use.
Referring to the document [HongQingtao, TangYipeng, Neurons of cerebral cortex of newborn rats in in vitro primary culture, Chinese Journal of Neuroanatomy, 1994, 10(3):259-262], the pregnant 16-18 d SD rat was executed by dislocation. The fetal rat was taken out in an aseptic environment, the meninges and blood steak were stripped, the cortex was separated and cut into 1 mm^3 tissue block (all carried out on ice). The tissue block was digested at 37[…] with 0.1% pancreatic enzyme-0.02% EDTA for 20 min. Digesting was stopped using DMEM containing fetal calf serum and the number of the cells was adjusted to 5×10^5 cells ml^−1. The resultant cells were inoculated into a 96 well plate treated by 0.001% polylysine and the plate was put in a 37° C. 5% CO2 incubation box to be cultured. The cultivation liquid was changed (totally) after 48 h and add adenine arabinoside was added (final concentration is 5 μM) to inhibit the excessive proliferation of non-neurons. The cultivation liquid was changed after 48 h with fresh cultivation liquid and culture was continued. And the cultivation liquid was changed every 3 days afterward.
The cultivation liquid was sucked away on the eighth day of neuron culture. DMEM culture-medium containing 0.15% DMSO was added to the blank group, while 60 μM, 30 μM, 15 μM LQC-T4, 60 μM tetramethylpyrazine and 60 μM vanillic acid were respectively added to the administration group. Ten parallel wells were set as a group. And they were put into a 37° C., 5% CO2 incubation box to continue culturing for 24 h.
5 mg/ml MTT 20 μl was added to each well at the time of 4 h before the experiment ended and the cultivation liquid was sucked away. DMSO 200 μl was added to each well. When the purple particles were completely dissolved, the enzyme-linked immune assay was used to measure the optical density at 540 nm.
as §1

With `Cc1nc(C)c(COC(=O)c2ccc(OCc3nc(C)c(C)nc3C)c(OCc3nc(C)c(C)nc3C)c2)nc1C` [LQC-T2, (3,5,6-trimethylpyrazine-2-yl)methyl-3,4-bis((3,5,6-trimethylpyrazine-2-yl)methoxy) benzoate], the “small vessel angiogenesis of CAM model, Medicine group (X ± S)” value (from here on “small vessel angiogenesis of CAM model”) in test [1] is given as 14.17 ± 1.47. Besides, in test [1] (result in words), the “effect on growth of new (small) vessels compared with the blank group” value is reported as “significant promoting effect”.

Turning to `COc1cc(C(=O)OCc2nc(C)c(C)nc2C)ccc1O` [LQC-T3, (3,5,6-trimethylpyrazine-2-yl)methyl-3-methoxy-4-hydroxybenzoate], the “small vessel angiogenesis of CAM model” value in test [1] turned out to be 10.4 ± 2.16.

For `Cc1nc(C)c(COc2ccc(C=O)cc2OCc2nc(C)c(C)nc2C)nc1C` [LQC-T5, 3,4-bis((3,5,6-trimethylpyrazine-2-yl)methoxy)benzaldehyde], the “small vessel angiogenesis of CAM model” value in test [1] is 14.17 ± 5.19.

On to `Cc1nc(C)c(COC(=O)/C=C/c2ccc(OCc3nc(C)c(C)nc3C)c(OCc3nc(C)c(C)nc3C)c2)nc1C` [LQC-T6], for which the “small vessel angiogenesis of CAM model” value in test [1] stood at 8.83 ± 3.71.

Turning to `COc1cc(C(=O)O)ccc1O` [Vanillic acid, vanillic acid, reference compound], the “respiration duration” value in the test on ICR mice was determined as 35.73 ± 5.66 s. Besides, the “MTT(A540), 24 h after the administration” value in test [2] is given as 0.8820 ± 0.1469.

With “(3,5,6-trimethylpyrazin-2-yl)methyl 4-hydroxy-3-methoxybenzoate [LQC-T1]”, the “small vessel angiogenesis of CAM model” value in test [1] was found to be 12.7 ± 2.73.
